Our source for the IC50, EC50 and inhibition values is ChEMBL document CHEMBL2028040, “Malaria Box”.

Data set [1] relates to Trypanosoma brucei rhodesiense. Description: MMV: Inhibition of Trypanosoma brucei rhodesiense (STIB 900) (HAT in vitro). The format is functional, organism-based.
Data set [2] in a line: MMV: Cytotoxicity against human fibroblasts (MRC-5) cells. As to conditions: MRC-5 cells (human fibroblasts).
The test system of data set [3] is Trypanosoma brucei brucei. Kind of data set: MMV: Inhibition of Trypanosoma brucei brucei (Squib 427) (HAT in vitro). Type of data set: functional, organism-based.
Data set [4] concerns Trypanosoma cruzi. Description: MMV: Inhibition of Trypanosoma cruzi (Tulahuen C4 LacZ) (Chagas in vitro). The format is functional, organism-based.
Data set [5] relates to Plasmodium falciparum. Description: MMV: Inhibition of Plasmodium falciparum 3D7 (EC50). Type of data set: functional, organism-based.
The test system of data set [6] is Leishmania infantum. Kind of data set: MMV: Inhibition of Leishmania infantum (MHOM/MA/BE/67) in vitro. Type of data set: functional, organism-based.
The subject of data set [7] is Plasmodium falciparum. Description: MMV: Inhibition of Plasmodium falciparum 3D7 at 5uM compound concentration. Type of data set: functional.

Regarding `COc1ccc(C2c3ccc4ccccc4c3Oc3ncn(CCCN(C)C)c(=N)c32)cc1` (centres undefined), the IC50 worked out at 0.223 µM in data set [1]; 3.49 µM in data set [2]; 0.259 µM in data set [3]; 1.01 µM in data set [4]; 1.01 µM in data set [6]. Moreover, the EC50 in data set [5] was determined as 1.23 µM.
On to `CCN1CCCC1CNc1[nH]cnc2c3cc(Cl)ccc3nc1-2` (centres undefined), for which the IC50 in data set [1] was greater than 32 µM; in data set [2] it was greater than 32 µM; in data set [3] it was greater than 32 µM; in data set [4], greater than 32 µM; in data set [6] it was 16.2 µM. Also, the EC50 in data set [5] was found to be 0.218 µM.
Take `COc1ccc(-c2c(C)nn3c(N)c(C#N)cnc23)cc1OC`: the IC50 in data set [1] was greater than 32 µM; in data set [2], 27.6 µM; in data set [3], greater than 32 µM; in data set [4], greater than 32 µM; in data set [6] it was greater than 32 µM. The same molecule displayed an EC50 in data set [5] of 0.477 µM.
As to `COc1ccc2c(c1)C1(Nc3ccccc3-c3nc4ccccc4n31)C(=O)N2` (centres undefined), the IC50 in data set [1], in data set [2], in data set [3], in data set [4] and in data set [6] was greater than 32 µM in each case. Further, the EC50 in data set [5] is 0.928 µM.
As to `COc1cccc(Cn2c(Oc3ccccc3)nc3c2c(=O)n(C)c(=O)n3C)c1`, the IC50 in data set [1], in data set [2], in data set [3], in data set [4] and in data set [6] was greater than 32 µM each time. In data set [5], this molecule had an EC50 of 1.39 µM.
In the case of `N=c1n(CCN2CCCCC2)c2ccccc2n1CC(=O)c1ccc(Cl)c(Cl)c1`, the IC50 in data set [1] amounted to 1.1 µM; in data set [2], 10.6 µM; in data set [3], 4 µM; in data set [4] it was 4.48 µM; in data set [6], 4.06 µM. For the same molecule, in data set [5], the EC50 was found to be 1.24 µM.
`C[n+]1c2ccccc2nc2ccc(NCCO)cc21`: the IC50 in data set [1] was 16 µM; in data set [2] it was greater than 32 µM; in data set [3], 14 µM; in data set [4], 16 µM; in data set [6], greater than 32 µM. Moreover, the EC50 in data set [5] came out at 0.296 µM.
For the molecule `OC(CNCC1CCCO1)Cn1c2ccc(Cl)cc2c2cc(Cl)ccc21` (centres undefined), the IC50 in data set [1] is 6.12 µM; in data set [2] it was greater than 32 µM; in data set [3], 10 µM; in data set [4], 19.2 µM; in data set [6] it was 16.1 µM. Further, the midpoint of the response in data set [5], the EC50, lay at 1.06 µM.
As for `Cc1sc(NC(=O)c2ccco2)c(C(c2cccnc2)N2CCC(Cc3ccccc3)CC2)c1C` (centres undefined), the IC50 was 3.97 µM in data set [1]; greater than 32 µM in data set [2]; 3.94 µM in data set [3]; 1.36 µM in data set [4]; 16.2 µM in data set [6]. Also, the EC50 in data set [5] was 1.02 µM.
Take `CCOC(=O)c1c(C)n(-c2ccccc2)c2ccc(OC(=O)c3cc(OC)c(OC)c(OC)c3)cc12`: the IC50 in data set [1] is 10.8 µM; in data set [2] it was 26.4 µM; in data set [3], 16.2 µM; in data set [4] it was 13.3 µM; in data set [6] it was greater than 32 µM. In data set [5], this molecule registered an EC50 of 0.615 µM.
As for `COc1cc(C(=O)Nc2nc3c(cc4c5c(cccc53)CC4)s2)cc(OC)c1OC`, the IC50 is greater than 32 µM in data set [1]; greater than 32 µM in data set [2]; greater than 32 µM in data set [3]; greater than 32 µM in data set [4]; 16.2 µM in data set [6]. The same molecule had an EC50 in data set [5] of 0.898 µM.
Take `Cc1cc(N2CCCC2)nc(Nc2ccc(NC(=O)CCc3ccccc3)cc2)n1`: the IC50 in data set [1] turned out to be 0.871 µM; in data set [2] it was 5.38 µM; in data set [3], 4.3 µM; in data set [4] it was 1.01 µM; in data set [6], 1.19 µM. The molecule also returned an EC50 in data set [5] of 1.07 µM.
For `O=C(NCC(c1ccsc1)N1CCCCCC1)c1ccc(C(F)(F)F)cc1` (centres undefined), the IC50 in data set [1] was 1.7 µM; in data set [2], greater than 32 µM; in data set [3], 16.1 µM; in data set [4] it was 22.5 µM; in data set [6], 16.1 µM. Further, the EC50 in data set [5] came out at 0.433 µM.
Regarding `COc1ccc(-c2cc3c(SCC(=O)Nc4cc(C(F)(F)F)ccc4Cl)nccn3n2)cc1`, the IC50 in data set [1] was greater than 32 µM; in data set [2] it was greater than 32 µM; in data set [3], greater than 32 µM; in data set [4], greater than 32 µM; in data set [6], 16.2 µM. In addition, the EC50 in data set [5] was 0.0899 µM.
Turning to `Cc1ccc(-c2cc3c(SCC(=O)Nc4cc(C(F)(F)F)ccc4Cl)nccn3n2)cc1`, the IC50 in data set [1], in data set [2], in data set [3], in data set [4] and in data set [6] was greater than 32 µM each time. For the same molecule, the midpoint of the response in data set [5], the EC50, lay at 0.0928 µM.
Consider `Cc1cc(NC(=O)c2cccc(C(F)(F)F)c2)n(-c2nc(-c3ccc4c(c3)OCO4)cs2)n1`, for which the half-inhibitory concentration (IC50) in data set [1] was greater than 32 µM; in data set [2], greater than 32 µM; in data set [3], greater than 32 µM; in data set [4] it was greater than 32 µM; in data set [6], 16.2 µM. The response in data set [5] was half-maximal at 0.959 µM (EC50).
Turning to `CCN(CC)CCNc1ncnc2c1[nH]c1ccc(Cl)cc12`, the IC50 in data set [1] is 3.73 µM; in data set [2], greater than 32 µM; in data set [3] it was 4.09 µM; in data set [4] it was 10.7 µM; in data set [6], 16.2 µM. In data set [5], the EC50 stood at 0.406 µM.
Consider `CN1CCN(c2ncnc3c2[nH]c2ccc(Cl)cc23)CC1`, for which the IC50 in data set [1] is 11 µM; in data set [2], greater than 32 µM; in data set [3], 14.6 µM; in data set [4], 30.8 µM; in data set [6], 21.5 µM. The EC50 in data set [5] amounted to 1.19 µM.
As for `CC1(c2ccccc2)Nc2ccccc2-c2nc3ccccc3n21` (centres undefined), the IC50 was 10.3 µM in data set [1]; greater than 32 µM in data set [2]; 17.1 µM in data set [3]; 19.1 µM in data set [4]; greater than 32 µM in data set [6]. Also, the EC50 in data set [5] is 1.73 µM.
Regarding `COc1ccc(CCN2C(=O)c3[nH]nc(-c4cc(Cl)c(C)cc4O)c3C2c2ccccc2F)cc1` (centres undefined), the IC50 in data set [1] was 3.56 µM; in data set [2], greater than 32 µM; in data set [3], 4 µM; in data set [4], 12.9 µM; in data set [6], 12 µM. In data set [5], the midpoint of the response, the EC50, lay at 0.916 µM.
With `COc1cccc(C2(C)Nc3ccccc3-c3nc4ccccc4n32)c1` (centres undefined), the IC50 in data set [1] was 14.5 µM; in data set [2] it was 26.4 µM; in data set [3], 15 µM; in data set [4], 13.4 µM; in data set [6] it was greater than 32 µM. Further, the EC50 in data set [5] was 1.15 µM.
Turning to `N#Cc1nc(Cc2cccc3ccccc23)oc1N1CCN(C(c2ccccc2)c2ccccc2)CC1`, the IC50 in data set [1] is 15.7 µM; in data set [2], greater than 32 µM; in data set [3], greater than 32 µM; in data set [4] it was greater than 32 µM; in data set [6], 25.4 µM. Also, the EC50 in data set [5] amounted to 1.16 µM.
On to `CC(C)CNC(=O)c1c(N)n(CCc2ccccc2F)c2nc3ccccc3nc12`, for which the IC50 in data set [1], in data set [2], in data set [3], in data set [4] and in data set [6] was greater than 32 µM throughout. Further, the EC50 in data set [5] was determined as 0.832 µM.
With `O=C(NNc1cc(N2CCCC2)nc(N2CCCC2)n1)c1ccccc1`, the IC50 in data set [1] was 16.5 µM; in data set [2], greater than 32 µM; in data set [3], greater than 32 µM; in data set [4] it was 13.7 µM; in data set [6] it was 25.4 µM. Also, the EC50 in data set [5] came to 1.33 µM.
For the molecule `CC(C)(C)CC(C)(C)NCC(O)COc1ccc(Cl)cc1Cl` (centres undefined), the IC50 in data set [1] came out at 4.06 µM; in data set [2], 16.1 µM; in data set [3], 4 µM; in data set [4], 12.2 µM; in data set [6], 6.35 µM. In data set [5], this molecule displayed an EC50 of 1.16 µM.
Regarding `Cc1cccc(-n2ncc3c(O)nc(-n4nc(C)cc4NC(=O)c4cc5ccccc5o4)nc32)c1`, the IC50 turned out to be 0.305 µM in data set [1]; 0.653 µM in data set [2]; 0.481 µM in data set [3]; 0.234 µM in data set [4]; 4.32 µM in data set [6]. In addition, in data set [5], the response was half-maximal at 0.929 µM (EC50).
As for `COC(=O)c1ccc(Cl)c2c1C1C=CCC1C(c1cccc3ccccc13)N2` (centres undefined), the IC50 is 11.9 µM in data set [1]; greater than 32 µM in data set [2]; 16 µM in data set [3]; 13.5 µM in data set [4]; 17.3 µM in data set [6]. Moreover, the EC50 in data set [5] was 0.939 µM.
For the molecule `COc1ccc(C2c3ccc4ccccc4c3Oc3ncn(CCCn4ccnc4)c(=N)c32)cc1OC` (centres undefined), the IC50 turned out to be 1.8 µM in data set [1]; 10.1 µM in data set [2]; 15.5 µM in data set [3]; 4.2 µM in data set [4]; 5.38 µM in data set [6]. The molecule also gave an EC50 in data set [5] of 1.79 µM.
With `CN(N=O)C1=C(NC2CCCCC2)C(=O)c2ccccc2C1=O`, the IC50 in data set [1] is 4.61 µM; in data set [2] it was greater than 32 µM; in data set [3] it was 16.5 µM; in data set [4] it was 12.8 µM; in data set [6], greater than 32 µM. The molecule further returned an EC50 in data set [5] of 1.19 µM.
As to `OC1=C2C(=Nc3ccccc3SC2c2ccccc2)c2ccccc21` (centres undefined), the concentration for half-maximal inhibition (IC50) is 3.56 µM in data set [1]; 15.7 µM in data set [2]; 4.15 µM in data set [3]; 13.9 µM in data set [4]; 16.2 µM in data set [6]. Further, the EC50 in data set [5] came out at 0.89 µM.
Turning to `COc1ccc(CCn2c(=N)c(C(=O)NCc3cccnc3)cc3c(=O)n4cccc(C)c4nc32)cc1`, the IC50 in data set [1] was 3.6 µM; in data set [2], greater than 32 µM; in data set [3], 4 µM; in data set [4], 13.2 µM; in data set [6], 12.7 µM. The molecule further gave an EC50 in data set [5] of 0.373 µM.
With `CCOc1ccc(Nc2c3ccccc3nc3ccccc23)cc1`, the IC50 turned out to be 0.976 µM in data set [1]; 8.44 µM in data set [2]; 3.45 µM in data set [3]; 1.25 µM in data set [4]; 1.59 µM in data set [6]. Also, in data set [7], the inhibition at 5 µM was found to be 97%. The midpoint of the response in data set [5], the EC50, lay at 1.06 µM.
Turning to `Nc1ccn([C@@H]2O[C@H](CO)[C@@H](O)[C@H]2O)c(=O)n1` [CYTIDINE], the half-maximal inhibitory concentration (IC50) in data set [1], in data set [2], in data set [3], in data set [4] and in data set [6] was greater than 32 µM throughout. The same molecule returned an EC50 in data set [5] of 0.385 µM.

One may read the IC50 as the concentration needed to halve the response being measured. The low end stands for higher potency, the high end for lower potency. Usually EC50 stands for the concentration needed to bring the measured effect to its halfway point. For orientation: inhibition means the percentage by which the read-out fell short of the control. High values mean a strong effect, low ones a weak effect.
